The values below are quoted from earlier work in patent US7399616B2, “Enzymatic synthesis of Nα-acyl-L-arginine esters” (Laboratorios Miret, S.A., priority 2002, dated 2008).

Molecules are shown by their SMILES.

One series has as its system microorganisms. As to conditions: acts over external and cytoplasmatic membrane and into cytoplasmatic medium; depends on kind of microorganism and exposure time.
The conditions of series [1]: rats; metabolised into naturally-occurring amino acids and lauric acid, excreted as carbon dioxide and urea.
The conditions of series [2]: animals and humans.

Regarding `CCCCCCCCCCCC(=O)N[C@@H](CCCN=C(N)N)C(=O)OCC.Cl` [LAE, ethyl ester of the laurylamide of the L-arginine monohydrochloride], in the series with microorganisms, the “action on microorganisms (proliferation)” value was “preventing their proliferation”. Besides, the absorption and metabolism entry in series [1] was “fast absorption and metabolism”. In series [2], the toxicity result is listed as “completely harmless”.
